Data taken from patent publication US7629376B2, “3-substituted-5- and 6-aminoalkyl indole-2-carboxylic acid amides and related analogs as inhibitors of casein kinase I” (Aventis Pharmaceuticals Inc., priority 2004, dated 2009).

Molecular target: T1, casein kinase 1ε (Homo sapiens, UniProt P49674)
T1 construct: made in house
Assay: Casein Kinase Epsilon 33P-ATP Filter Plate Assay for Screening CK1ε Inhibitors
Format: biochemical
Protocol: Casein Kinase Epsilon ^33P-ATP Filter Plate Assay for Screening CK1ε Inhibitors
Purpose: This assay measures the ability of compounds to inhibit the phosphorylation of the substrate casein by the enzyme casein kinase 1ε using an in vitro ^33P-ATP filtration assay.
The above are stored as 100 μL aliquots at minus 80° C. • Compounds: • Supply compounds for testing as frozen 10 mM compound stock dissolved in 100% DMSO. Assay Conditions: • Final total assay volume per well is equal to 50 μL that one prepares as follows: • 5 μL of diluted compound stock (10, 1, 0.1, 0.01 or 0.001 μM), • 5 μL of dephosphorylated casein final concentration 0.2 μg/μL, • 20 μL of CK1ε final concentration 3 ng/μL, and • 20 μL of γ-^33P-ATP final concentration 0.02 μCi/μL mixed with cold ATP (10 μM final). Methodology: • 1. Prepare 500 mL of fresh assay buffer: 50 mM Tris pH 7.5, 10 nm MgCl2, 2 mM DTT and 1 mM EGTA • 2. Obtain compounds to be evaluated as 10 μL of 10 mM stock dissolved in 100% DMSO. Use a Biomek 2000 liquid handling robot, make serial dilutions to yield 10, 1, 0.1, 0.01 and 0.001 μM final compound dilutions added as 5 μL additions to Falcon U bottom plates. […] A routine screening assay will consist of 32 compounds, which equals 4 assay plates. • 3.
• 4. Add 5 μL of compound as indicated, then add 5 μL of dephosphorylated casein (dissolved in distilled H20) (0.2 μg/μL) and 20 μL CK1ε (3 ng/μL) to the appropriate wells. • 5. Finally add 20 μL γ-^33P-ATP (0.02 μCi/μL)/10 μM cold ATP (equals approximately 2×10^6 CPM per well). • 6. Vortes the Falcon U-Bottom assay plate containing the above 50 μL reaction volume and then incubate at room temperature for 2 hours. • 7. At the end of 2 hours, stop the reaction by the addition of 65 μL of ice cold 2 mM cold ATP (made up in assay buffer) to the assay plates using a Beckman Multimek. • 8. At the same time add 25 μL 100% ice cold TCA made up in distilled H20 to a matching number of Millipore MAPH filter plates. • 9. Using a handheld 8-channel pipettor, transfer 100 μL of the reaction mixture from the Falcon U-Bottom Plate to the Millipore MAPH filter plates presoaked with TCA. • 10. Mix the Millipore MAPH filter plates gently and allow to sit at room temperature for at least 30 minutes to precipitate the proteins. • 11. After 30 minutes, place the filter plates on a Millipore vacuum manifold and filter at no more than 8 mm Hg as the MAPH filters tend to “air lock” at higher vacuum settings. • 12. […] Allow the plates to dry overnight at room temperature. The next day add 40 μL Packard Microscint-20 Scintillation Fluid per well using a Titertek Multidrop dispenser; seal the plates and count for 2 minutes/well in a Packard Topcount NXT Scintillation Counter (to provide CPM values/well). Calculation: • 1. Import Counts Per Minute (CPM) data into a proprietary data calculation and archiving database (Activity Base by IDBS version 5.0). • 2. Column 1 for each plate reflects total phosphorylation activity of the enzyme in the absence of any inhibiting compound and thus represents 100%. Column 12 reflects any nonspecific phosphorylation/retained radioactivity activity in the absence of inhibiting compound and enzyme. Typically one observes approximately 1% of Total CPMs that are “nonspecific”. • 3.

T1 sequence (P49674 whole entry): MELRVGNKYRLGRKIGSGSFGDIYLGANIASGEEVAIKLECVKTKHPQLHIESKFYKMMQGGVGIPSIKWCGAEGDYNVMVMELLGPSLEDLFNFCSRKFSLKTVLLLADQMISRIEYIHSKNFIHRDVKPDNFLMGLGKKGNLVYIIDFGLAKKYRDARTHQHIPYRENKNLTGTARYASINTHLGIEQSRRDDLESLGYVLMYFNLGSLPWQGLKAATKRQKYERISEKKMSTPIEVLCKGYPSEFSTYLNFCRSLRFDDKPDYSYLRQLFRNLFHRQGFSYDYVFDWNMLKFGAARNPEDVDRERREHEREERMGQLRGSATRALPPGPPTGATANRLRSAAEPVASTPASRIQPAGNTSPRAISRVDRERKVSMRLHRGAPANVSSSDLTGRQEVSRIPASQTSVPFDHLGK

SMILES | Ki
CCC(C)C(N)C(=O)NCc1ccc2c(Sc3ccccc3)c(C(N)=O)[nH]c2c1 (stereo not shown) [IIq, 6-[(2-Amino-3-methylpentanoylamino)methyl]-3-phenylsulfanyl-1H-indole-2-carboxylic acid amide] | 150 nM
COc1ccc(CNCc2ccc3c(Sc4ccccc4)c(C(N)=O)[nH]c3c2)cc1OCc1ccccc1 [IIak, 6-[(3-Benzyloxy-4-methoxybenzylamino)methyl]-3-phenylsulfanyl-1H-indole-2-carboxylic acid amide] | 640 nM
CC(CO)(CO)NCc1ccc2[nH]c(C(N)=O)c(Sc3ccccc3)c2c1 [Iv, 5-[(2-Hydroxy-1-hydroxymethyl-1-methyl-ethylamino)methyl]-3-phenylsulfanyl-1H-indole-2-carboxylic acid amide] | 360 nM
COc1cc(CNCc2ccc3c(Sc4ccccc4)c(C(N)=O)[nH]c3c2)ccc1OCc1ccccc1 [IIaj, 6-[(4-Benzyloxy-3-methoxybenzylamino)methyl]-3-phenylsulfanyl-1H-indole-2-carboxylic acid amide] | 2100 nM
NC(=O)c1[nH]c2cc(CNCc3ccc([N+](=O)[O-])o3)ccc2c1Sc1ccccc1 [IIau, 6-{[(5-Nitrofuran-2-ylmethyl)amino]methyl}-3-phenylsulfanyl-1H-indole-2-carboxylic acid amide] | 700 nM
NC(=O)c1[nH]c2cc(CNCc3ccc([N+](=O)[O-])cc3)ccc2c1Sc1ccccc1 [IId, 6-[(4-Nitrobenzylamino)methyl]-3-phenylsulfanyl-1H-indole-2-carboxylic acid amide] | 470 nM
NC(=O)c1[nH]c2cc(CNCc3c4ccccc4c(Cl)c4ccccc34)ccc2c1Sc1ccccc1 [IIaf, 6-{[(10-Chloro-anthracen-9-ylmethyl)amino]methyl}-3-phenylsulfanyl-1H-indole-2-carboxylic acid amide] | 4830 nM
NC(=O)c1[nH]c2cc(CNCc3ccc(-c4ccccc4Cl)o3)ccc2c1Sc1ccccc1 [IIar, 6-({[5-(2-Chlorophenyl)-furan-2-ylmethyl]amino}methyl)-3-phenylsulfanyl-1H-indole-2-carboxylic acid amide] | 2540 nM
Cc1ccc(CNCc2ccc3c(Sc4ccccc4)c(C(N)=O)[nH]c3c2)cc1 [IIf, 6-[(4-Methylbenzylamino)methyl]-3-phenylsulfanyl-1H-indole-2-carboxylic acid amide] | 810 nM
NC(=O)c1[nH]c2cc(CNCc3c(F)cccc3C(F)(F)F)ccc2c1Sc1ccccc1 [IIap, 6-[(2-Fluoro-6-trifluoromethylbenzylamino)methyl]-3-phenylsulfanyl-1H-indole-2-carboxylic acid amide] | > 10000 nM
NC(=O)c1[nH]c2cc(CNCc3ccccc3[N+](=O)[O-])ccc2c1Sc1ccccc1 [IIl, 6-[(2-Nitrobenzylamino)methyl]-3-phenylsulfanyl-1H-indole-2-carboxylic acid amide] | 1770 nM
NC(=O)c1[nH]c2cc(CNC(=O)[C@@H](N)Cc3ccccc3)ccc2c1Sc1ccccc1 [IIt, 6-[(2-Amino-3-phenylpropionylamino)methyl]-3-phenylsulfanyl-1H-indole-2-carboxylic acid amide] | 1280 nM
NC(=O)c1[nH]c2cc(CN(Cc3ccc([N+](=O)[O-])o3)Cc3ccc([N+](=O)[O-])o3)ccc2c1Sc1ccccc1 [IIat, 6-{[Bis-(5-nitrofuran-2-ylmethyl)amino]methyl}-3-phenylsulfanyl-1H-indole-2-carboxylic acid amide] | > 10000 nM
NC(=O)c1[nH]c2cc(CNC(=O)C(N)CC(=O)O)ccc2c1Sc1ccccc1 (stereo not shown) [IIae, 3-Amino-N-(2-carbamoyl-3-phenylsulfanyl-1H-indol-6-ylmethyl)succinamic acid] | 780 nM
NCC(=O)NCc1ccc2c(Sc3ccccc3)c(C(N)=O)[nH]c2c1 [IIp, 6-[(2-Aminoacetylamino)methyl]-3-phenylsulfanyl-1H-indole-2-carboxylic acid amide] | 120 nM
NC(=O)c1[nH]c2cc(CNCc3ccc(C=Cc4ccccc4)cc3)ccc2c1Sc1ccccc1 [IIao, 3-Phenylsulfanyl-6-[(4-styrylbenzylamino)methyl]-1H-indole-2-carboxylic acid amide] | > 10000 nM

SMILES | Ki
NC(=O)c1[nH]c2ccc(CN3CCOCC3)cc2c1Sc1ccccc1 [Ii, 5-Morpholin-4-ylmethyl-3-phenylsulfanyl-1H-indole-2-carboxylic acid amide] | 240 nM
NC(=O)c1[nH]c2cc(CNCc3cccc(Oc4ccccc4)c3)ccc2c1Sc1ccccc1 [IIx, 6-[(3-Phenoxybenzylamino)methyl]-3-phenylsulfanyl-1H-indole-2-carboxylic acid amide] | 1190 nM
CC(NCc1ccc2[nH]c(C(N)=O)c(Sc3ccccc3)c2c1)C(N)=O (stereo not shown) [Iaf, 5-[(1-Carbamoylethylamino)methyl]-3-phenylsulfanyl-1H-indole-2-carboxylic acid amide] | 390 nM
CCCCc1ccc(NCc2ccc3[nH]c(C(N)=O)c(Sc4ccccc4)c3c2)cc1 [Iah, 5-[(4-Butylphenylamino)methyl]-3-phenylsulfanyl-1H-indole-2-carboxylic acid amide] | 4280 nM
COc1cccc(CNCc2ccc3c(Sc4ccccc4)c(C(N)=O)[nH]c3c2)c1 [IIy, 6-[(3-Methoxybenzylamino)methyl]-3-phenylsulfanyl-1H-indole-2-carboxylic acid amide] | 380 nM
NC(=O)c1[nH]c2cc(CNCc3ccc(Br)cc3)ccc2c1Sc1ccccc1 [IIh, 6-[(4-Bromobenzylamino)methyl]-3-phenylsulfanyl-1H-indole-2-carboxylic acid amide] | 740 nM
CCCNCc1ccc2[nH]c(C(N)=O)c(Sc3ccccc3)c2c1 [Ij, 3-Phenylsulfanyl-5-propylaminomethyl-1H-indole-2-carboxylic acid amide] | 200 nM
NC(=O)CC[C@H](N)C(=O)NCc1ccc2c(Sc3ccccc3)c(C(N)=O)[nH]c2c1 [IIr, 2-Aminopentanedioic acid 5-amide 1-[(2-carbamoyl-3-phenylsulfanyl-1H-indol-6-ylmethyl)-amide]] | 270 nM
CNCc1ccc2c(c1)c(Sc1ccccc1)c(C(N)=O)n2C [Ig, 1-Methyl-5-methylaminomethyl-3-phenylsulfanyl-1H-indole-2-carboxylic acid amide] | 4450 nM
COc1ccc(CNCc2ccc3c(Sc4ccccc4)c(C(N)=O)[nH]c3c2)c(OC)c1 [IIw, 6-[(2,4-Dimethoxybenzylamino)methyl]-3-phenylsulfanyl-1H-indole-2-carboxylic acid amide] | 290 nM
CCCCNCc1ccc2[nH]c(C(N)=O)c(Sc3ccccc3)c2c1 [Ik, 5-Butylaminomethyl-3-phenylsulfanyl-1H-indole-2-carboxylic acid amide] | 93 nM
COc1ccc2ccccc2c1CNCc1ccc2c(Sc3ccccc3)c(C(N)=O)[nH]c2c1 [IIv] | 1010 nM
NC(=O)c1[nH]c2ccc(CNCc3ccccc3)cc2c1Sc1ccccc1 [If, 5-(Benzylaminomethyl)-3-phenylsulfanyl-1H-indole-2-carboxylic acid amide] | 710 nM
CC(C)NCc1ccc2[nH]c(C(N)=O)c(Sc3ccccc3)c2c1 [Iaj, 5-(Isopropylaminomethyl)-3-phenylsulfanyl-1H-indole-2-carboxylic acid amide] | 540 nM
NC(=O)c1[nH]c2cc(CNCC=C(c3ccccc3)c3ccccc3)ccc2c1Sc1ccccc1 [IIan] | > 10000 nM
